Assay results taken from patent publication US20220136068A1, “METHODS OF DETECTING AND TREATING VENETOCLAX-RESISTANT ACUTE MYELOID LEUKEMIA” (The Regents of the University of Colorado, A Body Corporate, priority 2019, published 2022).

How the values were obtained:
[1] = tested on: prim-AML ROS-low LSCs; test: In vitro viability of sorted ROS-low LSCs from primitive AML; assay type: cell-based, human; conditions: in vitro treatment
Experimental: (§1) FIG. 2 is a series of charts showing viability of sorted ROSlow LSCs from mono-AML (n=5) and prim-AML (n=7) after 24 hours in vitro treatment with venetoclax alone or in combination with a fixed dose of 1.5 μM azacitidine. Each data point was expressed as mean±SD of technical triplicates. All viability data were normalized to untreated control.
(§2) To understand if the lack of response by monocytic AML to VEN+AZA is driven by intrinsic mechanisms, VEN+AZA sensitivity was directly evaluated in vitro, where protection from extrinsic factors such as the microenvironment is minimal. For these experiments, a second cohort of AML specimens with sufficient material to allow for more robust in vitro experimentation was used (herein referred to as Research Cohort 2). Using the surface expression profile of CD117, CD11b, CD68 and CD64, the primitive or monocytic compartment was isolated for analysis (herein referred to as prim-AML or mono-AML, respectively). Prim-AML has the phenotype of CD117+/CD11b−/CD68−/CD64− and mono-AML is predominantly CD117−/CD11b+/CD68+/CD64+. The in vitro drug sensitivity of these populations is shown in FIG. 2 and closely correlates with relative responses observed for the Clinical Cohort.
(§3) The relative sensitivity of LSCs derived from primitive versus monocytic AML specimens was analyzed. […]

[2] = tested on: mono-AML ROS-low LSCs; test: In vitro viability / cell death of sorted ROS-low LSCs from monocytic AML; assay type: cell-based, human; conditions: 24 hours in vitro treatment; FIG. 2, FIG. 3
Experimental: as §1
FIG. 3 is a series of bar graphs viability of three mono-AMLs from the Research Cohort 2 after 24 hours in vitro treatment with various single or combinations drugs.
as §2, with “The in vitro drug sensitivity of these populations is shown in FIG. 2 and closely correlates with relative responses observed for the Clinical Cohort.” left out
as §3

| SMILES | sensitivity/resistance (viability) of prim-AML ROS-low LSCs [1] | sensitivity/resistance (viability) of mono-AML ROS-low LSCs [2] |
| --- | --- | --- |
| Nc1ncn([C@@H]2O[C@H](CO)[C@@H](O)[C@H]2O)c(=O)n1 [AZA, azacitidine] | sensitive | – |
| COCCn1c2c([n+](Cc3cnccn3)c1C)C(=O)c1ccccc1C2=O [YM155] | highly resistant | sensitive |
